Values belong to the compound of their own block, whether it stands above or below them.
Key:
[1] = Encapsulation of DHB-based prodrugs in lipid-based formulation; assay type: physicochemical; conditions: oleic acid, Tween 80, PBS emulsion
Experimental: The DHB-based prodrugs were synthesized by the Medicinal Chemistry Core in University of Michigan. To prepare the formulation, the prodrug #201 or #905 (4 mg) was added to the mixture of oleic acid (45 μL) and Tween 80 (25 μL) and incubated overnight to equilibrate and allow the prodrug to dissolve. Then an aqueous phase consisting of PBS buffer was added, and the formulation emulsified by ultrasonication with an ultrasonic processor.

[2] = system: immune checkpoint blockers (ICBs); conditions: reported in literature; cited from earlier work
OT-I CD8+ T cells [3] = assay: Tcf1+CD8+ differentiation of OT-I T cells with metabolites; assay type: cell-based, mice; conditions: day 6
Experimental: FIG. 3: a) OT-I CD8+ T cells were cultured with different metabolites in vitro as indicated, b,c) shown are the frequency of the Tcf1^+CD8+ T cells and the representative flow cytometry plots on day 6. Data represent the mean±s.e.m. (n=5).
Splenocytes from OT-I mice were obtained aseptically. The cells were cultured in 96-well plates (1×10^5 cells per well). For Tcm differentiation study, cells were activated with SIINFEKL peptide (4×10^−9M) in the presence of various metabolites (arginine: 3 mM; 3-methylhistidine: 3 mM; N-acetylneuraminate: 100 μM; disodium sebacate: 100 μM; DHB: 100 μM; pantothenate: 100 μM; γ-aminobutyric acid: 100 μM; glycerol: 100 μM; AICAR: 100 μM, sodium ferulate: 100 μM) for 3 days. Then cells were washed three times with T-cell medium and further cultured with IL-2 (10 ng ml^−1; PeproTech) in the presence of metabolites for 5 days. The cells were then washed twice and re-activated with SIINFEKL peptide (10 μM) for 2 h. The suspension cells were collected, blocked with CD16/32 antibody and stained with the fixable viability dye eFluor 450, FITC-CD44 rat anti-human/mouse and PE-CD62L monoclonal antibody. To test if the central memory CD8+ T cells differentiation is dependent on dendritic cells, CD8 T cells isolated from the spleen in OT-I mice were incubated in the 96-well plate, which was precoated with anti-hamster IgG antibody. […] (1 μg mL^−1) and IL-2 (100 U mL^−1) were added into each well in the presence of 3-methylhistidine (3 mM), DHB (100 μM), or sodium ferulate (100 μM) for 2 days. Then cells were washed for three times to remove α-CD3/α-CD28 antibodies and further incubated with metabolites and IL-2 (10 ng ml^−1) for 5 days. Thereafter, cells were collected for central memory CD8^+ T cells analysis. For CD8^+ T cells survival study, cells were activated with antigen peptide as above, following with thoroughly washing, and incubation in presence of IL-2 for 2 days. […] Tcf1^+CD8^+, CD44^+CD62L^+CD8^+ and survival (stained with Annexin V-APC and PI) T cells were detected via flow cytometry.

OT-I CD8+ T cells [4] = assay: In vitro central memory (Tcm) differentiation of OT-I CD8+ T cells activated with SIINFEKL peptide and IL-2 with metabolites; assay type: cell-based, mice; conditions: day 8; metabolite-supplemented medium (arginine 3 mM, 3-methylhistidine 3 mM, DHB 100 μM, sodium ferulate 100 μM)
Experimental: FIG. 2: a) OT-I CD8+ T cells were cultured with different metabolites in vitro as indicated, b,c) shown is the frequency of CD44^+CD62L^+ Tcm CD8+ T cells on day 8. d) OT-I CD8+ T cells were activated with α-CD3/α-CD28 antibodies in presence of metabolites as indicated and shown is the Tcm CD8+ T cells on day 7. Data represent the mean±s.e.m. (n=5).
Splenocytes from OT-I mice were obtained aseptically. The cells were cultured in 96-well plates (1×10^5 cells per well). For Tcm differentiation study, cells were activated with SIINFEKL peptide (4×10^−9M) in the presence of various metabolites (arginine: 3 mM; 3-methylhistidine: 3 mM; N-acetylneuraminate: 100 μM; disodium sebacate: 100 μM; DHB: 100 μM; pantothenate: 100 μM; γ-aminobutyric acid: 100 μM; glycerol: 100 μM; AICAR: 100 μM, sodium ferulate: 100 μM) for 3 days. Then cells were washed three times with T-cell medium and further cultured with IL-2 (10 ng ml^−1; PeproTech) in the presence of metabolites for 5 days. The cells were then washed twice and re-activated with SIINFEKL peptide (10 μM) for 2 h. The suspension cells were collected, blocked with CD16/32 antibody and stained with the fixable viability dye eFluor 450, FITC-CD44 rat anti-human/mouse and PE-CD62L monoclonal antibody. To test if the central memory CD8+ T cells differentiation is dependent on dendritic cells, CD8 T cells isolated from the spleen in OT-I mice were incubated in the 96-well plate, which was precoated with anti-hamster IgG antibody. […] (1 μg mL^−1) and IL-2 (100 U mL^−1) were added into each well in the presence of 3-methylhistidine (3 mM), DHB (100 μM), or sodium ferulate (100 μM) for 2 days. Then cells were washed for three times to remove α-CD3/α-CD28 antibodies and further incubated with metabolites and IL-2 (10 ng ml^−1) for 5 days. Thereafter, cells were collected for central memory CD8^+ T cells analysis. For CD8^+ T cells survival study, cells were activated with antigen peptide as above, following with thoroughly washing, and incubation in presence of IL-2 for 2 days. Metabolites were added during this incubation (arginine: 3 mM, 1 mM; 3-methylhistidine: 3 mM, 1 mM, 500 μM, 100 μM; N-acetylneuraminate: 100 μM; disodium sebacate: 100 μM; DHB: 100 μM, 50 μM, 20 μM; pantothenate: 100 μM; γ-aminobutyric acid: 100 μM; glycerol: 100 μM; AICAR: 100 μM). Then cells were further incubated in absence of both IL-2 and metabolites for 36 h to induce the apoptosis/dead. For Tcf1^+CD8^+ differentiation study, cells were activated with antigen peptide as above, followed by thoroughly washing, and incubation with metabolites in presence of IL-2 for 3 days. […] Tcf1^+CD8^+, CD44^+CD62L^+CD8^+ and survival (stained with Annexin V-APC and PI) T cells were detected via flow cytometry.

encapsulation in lipid-based dose forms [1]: can be successfully encapsulated
SMILES: CCOC(=O)Oc1ccc(C(=O)OCC)cc1OC(=O)OCC [Prodrug #905, ethyl 3,4-bis((ethoxycarbonyl)oxy)benzoate]

SMILES: CN(CC(=O)O)C(=N)N [creatine]
efficacy of immune checkpoint blockers (ICBs) [2]: improve the efficacy of immune checkpoint blockers

SMILES: CSCC[C@H](N)C(=O)O [methionine]
efficacy of immune checkpoint blockers (ICBs) [2]: improve the efficacy of immune checkpoint blockers

SMILES: COc1cc(/C=C/C(=O)[O-])ccc1O.[Na+] [sodium ferulate]
frequency of Tcf1+CD8+ T cells (OT-I CD8+ T cells [3]): increased the frequency | differentiation of CD44+CD62L+ central memory CD8+ T cells (OT-I CD8+ T cells [4]): significantly increased the differentiation

Reference: patent publication US20240299299A1, “COMPOSITIONS AND METHODS FOR INCREASING THE EFFICACY OF IMMUNOTHERAPIES AND VACCINES” (The Regents of the University of Michigan, priority 2021, published 2024)
